# Legend:
# FldA = biological target: T1, FldA (Escherichia coli, UniProt P61949); assay: solution NMR structure of holo-form; […] HSQC titration; format: binding; conditions: oxidized FMN, non-covalent; pH 7.0, 30 mM sodium phosphate, 30 mM NaCl, 25 °C
# T1 construct: monomer; long-chain flavodoxin
# T1 sequence (P61949 1-176): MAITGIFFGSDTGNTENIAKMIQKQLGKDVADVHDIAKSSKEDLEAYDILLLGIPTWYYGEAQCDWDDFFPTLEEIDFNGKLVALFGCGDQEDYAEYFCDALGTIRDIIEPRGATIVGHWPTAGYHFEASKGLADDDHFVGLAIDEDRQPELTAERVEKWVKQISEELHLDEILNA
# YqcA = biological target: T2, YqcA (Escherichia coli, UniProt P65367); assay: as above; format: binding; conditions: oxidized FMN, non-covalent; slow exchange; pH 7.0, 30 mM sodium phosphate, 30 mM NaCl, 25 °C
# T2 construct: monomer; short-chain flavodoxin
# T2 sequence (P65367 whole entry): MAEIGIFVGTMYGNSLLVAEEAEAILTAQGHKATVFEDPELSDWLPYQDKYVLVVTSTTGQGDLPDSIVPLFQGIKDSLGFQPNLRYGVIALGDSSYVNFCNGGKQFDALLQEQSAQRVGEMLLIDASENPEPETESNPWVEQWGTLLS
structure (smiles),measurement,setting,value
Cc1cc2nc3c(=O)[nH]c(=O)nc-3n(C[C@H](O)[C@H](O)[C@H](O)COP(=O)(O)O)c2cc1C [FMN],solution NMR structure of holo-form; 15N HSQC titration,FldA,FMN titration experiments were performed with FldA
same,solution NMR structure of holo-form; 15N HSQC titration,YqcA,These results demonstrate that YqcA binds FMN with high affinity

# Reference: publication PMC4122359, “Conformational Dynamics of Escherichia coli Flavodoxins in Apo- and Holo-States by Solution NMR Spectroscopy” (PLoS ONE, 2014)
